c1ccc2c(c1)OP1(=NP3(=NP4(=N1)Oc1ccccc1O4)Oc1ccccc1O3)O2
Conditions	solubility (mole fraction)
in 1,2-dichloroethane, 293.25 K	0.000409
in 1,2-dichloroethane, 298.35 K	0.000585
in 1,2-dichloroethane, 303.15 K	0.000765
in 1,2-dichloroethane, 308.15 K	0.00107
in 1,2-dichloroethane, 313.25 K	0.0015
in 1,2-dichloroethane, 318.55 K	0.00195
in 1,2-dichloroethane, 323.15 K	0.00252
in 1,2-dichloroethane, 328.55 K	0.00324
in 1,2-dichloroethane, 333.15 K	0.00419
in 1,2-dichloroethane, 338.25 K	0.00582
in THF, 291.95 K	0.000921
in THF, 298.25 K	0.00112
in THF, 303.65 K	0.00137
in THF, 307.95 K	0.00159
in THF, 313.25 K	0.00188
in THF, 318.35 K	0.00218
in THF, 323.15 K	0.0025
in THF, 328.25 K	0.00292
in acetone, 294.35 K	0.00025
in acetone, 298.35 K	0.000323
in acetone, 303.45 K	0.000429
in acetone, 308.65 K	0.000588
in acetone, 313.35 K	0.000759
in acetone, 318.15 K	0.000977
in acetone, 323.25 K	0.00126
in acetonitrile, 293.25 K	0.000116
in acetonitrile, 298.15 K	0.000217
in acetonitrile, 303.25 K	0.000289
in acetonitrile, 308.15 K	0.000369
in acetonitrile, 313.55 K	0.000471
in acetonitrile, 318.25 K	0.000586
in acetonitrile, 323.15 K	0.000743
in acetonitrile, 328.35 K	0.000922
in acetonitrile, 333.15 K	0.00115
in chloroform, 298.15 K	0.00214
in chloroform, 303.05 K	0.0027
in chloroform, 308.05 K	0.00334
in chloroform, 313.65 K	0.00427
in chloroform, 318.55 K	0.00519
in chloroform, 323.05 K	0.00628
in chloroform, 328.75 K	0.00771
in dichloromethane, 288.15 K	0.00108
in dichloromethane, 291.55 K	0.00127
in dichloromethane, 294.45 K	0.00145
in dichloromethane, 298.35 K	0.00175
in dichloromethane, 303.45 K	0.00219
in dichloromethane, 308.65 K	0.00276
in ethanol, 293.95 K	9.52e-05
in ethanol, 298.05 K	0.000117
in ethanol, 303.25 K	0.000153
in ethanol, 308.35 K	0.000194
in ethanol, 313.35 K	0.000234
in ethanol, 318.15 K	0.000308
in ethanol, 322.95 K	0.00038
in ethanol, 328.15 K	0.000451
in ethanol, 332.45 K	0.000562
in ethyl acetate, 298.15 K	0.000419
in ethyl acetate, 303.35 K	0.000563
in ethyl acetate, 308.25 K	0.000675
in ethyl acetate, 313.45 K	0.000856
in ethyl acetate, 318.25 K	0.00107
in ethyl acetate, 323.15 K	0.00133
in ethyl acetate, 328.15 K	0.00166
in ethyl acetate, 332.45 K	0.00188
in toluene, 293.15 K	0.000667
in toluene, 298.25 K	0.000868
in toluene, 303.15 K	0.00108
in toluene, 308.35 K	0.00137
in toluene, 313.55 K	0.0017
in toluene, 318.25 K	0.00205
in toluene, 323.15 K	0.00249
in toluene, 328.35 K	0.00305
in toluene, 333.15 K	0.00367
in toluene, 338.25 K	0.00442

— BigSolDB 2.1
